In PubChem BioAssay AID1259411 (Chemical Carcinogenesis Research Information System (CCRIS), 2018):
Calls of active or inactive are those of the source. The rule behind the calls is not given here.

System: rodent carcinogenicity bioassays, tumor incidence
Test: CCRIS carcinogenicity studies
In short: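 Archive of carcinogenicity, mutagenicity, tumor promotion and tumor inhibition results drawn from journals, NCI reports and other sources, expert-reviewed; covers 1985-2011 and is no longer updated.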

Measured: carcinogen call

Nc1ccc(Oc2ccc(N)cc2)cc1
active: Species: MOUSE, Strain/Sex: B6C3F1/FEMALE, Route: ORAL, Dose: 0, 0.015, 0.03, 0.08% IN DIET FOR 103 WK (STUDY DURATION: 104 WK), Dose: 0, 0.015, 0.03, 0.08% IN DIET FOR 103 WK (STUDY DURATION: 104 WK), Tumor Site: Type of Lesion: THYROID GLAND: FOLLICULAR ADENOMA, LIVER: ADENOMA, LIVER: HEPATOCELLULAR CARCINOMA, HARDERIAN GLAND: ADENOMA, Tumor Site: Type of Lesion: THYROID GLAND: FOLLICULAR ADENOMA, LIVER: ADENOMA, LIVER: HEPATOCELLULAR CARCINOMA, HARDERIAN GLAND: ADENOMA active; positive | Species: MOUSE, Strain/Sex: B6C3F1/FEMALE, Route: ORAL, Dose: 0, 150, 300, 800 PPM IN DIET, Dose: 0, 150, 300, 800 PPM IN DIET, Tumor Site: Type of Lesion: LIVER: HEPATOCELLULAR ADENOMA OR CARCINOMA, THYROID GLAND: FOLLICULAR CELL ADENOMA, HARDERIAN GLAND: ADENOMA, NOS, Tumor Site: Type of Lesion: LIVER: HEPATOCELLULAR ADENOMA OR CARCINOMA, THYROID GLAND: FOLLICULAR CELL ADENOMA, HARDERIAN GLAND: ADENOMA, NOS active; positive | Species: MOUSE, Strain/Sex: B6C3F1/MALE, Route: ORAL, Dose: 0, 0.015, 0.03, 0.08% IN DIET FOR 103 WK (STUDY DURATION: 104 WK), Dose: 0, 0.015, 0.03, 0.08% IN DIET FOR 103 WK (STUDY DURATION: 104 WK), Tumor Site: Type of Lesion: THYROID GLAND: FOLLICULAR HYPERPLASIA, HARDERIAN GLAND: ADENOMA active; positive | Species: MOUSE, Strain/Sex: B6C3F1/MALE, Route: ORAL, Dose: 0, 150, 300, 800 PPM IN DIET, Dose: 0, 150, 300, 800 PPM IN DIET, Tumor Site: Type of Lesion: LIVER: HEPATOCELLULAR ADENOMA OR CARCINOMA, HARDERIAN GLAND: ADENOMA, NOS active; positive | Species: RAT, Route: SUBCUTANEOUS, Tumor Site: Type of Lesion: LIVER active; positive | Species: RAT, Strain/Sex: F344/FEMALE, Route: ORAL, Dose: 0, 0.02, 0.04, 0.05% IN DIET FOR 103 WK (STUDY DURATION: 104 WK), Dose: 0, 0.02, 0.04, 0.05% IN DIET FOR 103 WK (STUDY DURATION: 104 WK), Tumor Site: Type of Lesion: THYROID GLAND: FOLLICULAR CARCINOMA, THYROID GLAND: FOLLICULAR ADENOMA, LIVER: NEOPLASTIC NODULE, LIVER: HEPATOCELLULAR, Tumor Site: Type of Lesion: THYROID GLAND: FOLLICULAR CARCINOMA, THYROID GLAND: FOLLICULAR ADENOMA, LIVER: NEOPLASTIC NODULE, LIVER: HEPATOCELLULAR active; positive | Species: RAT, Strain/Sex: F344/FEMALE, Route: ORAL, Dose: 0, 200, 400, 500 PPM IN DIET, Dose: 0, 200, 400, 500 PPM IN DIET, Tumor Site: Type of Lesion: LIVER: HEPATOCELLULAR CARCINOMA OR NEOPLASTIC NODULE, THYROID GLAND: FOLLICULAR CELL ADENOMA OR CARCINOMA active; positive | Species: RAT, Strain/Sex: F344/MALE, Route: ORAL, Dose: 0, 0.02, 0.04, 0.05% IN DIET FOR 103 WK (STUDY DURATION: 104 WK), Dose: 0, 0.02, 0.04, 0.05% IN DIET FOR 103 WK (STUDY DURATION: 104 WK), Tumor Site: Type of Lesion: THYROID GLAND: FOLLICULAR CARCINOMA, THYROID GLAND: FOLLICULAR ADENOMA, LIVER: NEOPLASTIC NODULE, LIVER: HEPATOCELLULAR, Tumor Site: Type of Lesion: THYROID GLAND: FOLLICULAR CARCINOMA, THYROID GLAND: FOLLICULAR ADENOMA, LIVER: NEOPLASTIC NODULE, LIVER: HEPATOCELLULAR active; positive | Species: RAT, Strain/Sex: F344/MALE, Route: ORAL, Dose: 0, 200, 400, 500 PPM IN DIET, Dose: 0, 200, 400, 500 PPM IN DIET, Tumor Site: Type of Lesion: LIVER: HEPATOCELLULAR CARCINOMA OR NEOPLASTIC NODULE, THYROID GLAND: FOLLICULAR CELL ADENOMA OR CARCINOMA active; positive

C#CCN1CC(=O)N(COC(=O)C2C(C=C(C)C)C2(C)C)C1=O (configuration not stated)
inactive: Species: Mouse, Strain/Sex: Crj:CD-1 (ICR)/Female (51/Group), Route: Oral, Dose: 0, 100, 3500, 7000 ppm of 92.9% imiprothrin in diet for 78 wk, study duration 78 wk, Dose: 0, 100, 3500, 7000 ppm of 92.9% imiprothrin in diet for 78 wk, study duration 78 wk inactive; negative | Species: Mouse, Strain/Sex: Crj:CD-1 (ICR)/Male (51/Group), Route: Oral, Dose: 0, 100, 3500, 7000 ppm of 92.9% imiprothrin in diet for 78 wk, study duration 78 wk, Dose: 0, 100, 3500, 7000 ppm of 92.9% imiprothrin in diet for 78 wk, study duration 78 wk inactive; negative | Species: Rat, Strain/Sex: Sprague-Dawley/Female (50/Group), Route: Oral, Dose: 0, 50, 250, 2500, 5000 ppm of 92.9% imiprothrin in diet for 104 wk, study duration 104 wk, Dose: 0, 50, 250, 2500, 5000 ppm of 92.9% imiprothrin in diet for 104 wk, study duration 104 wk inactive; negative | Species: Rat, Strain/Sex: Sprague-Dawley/Male (50/Group), Route: Oral, Dose: 0, 50, 250, 2500, 5000 ppm of 92.9% imiprothrin in diet for 104 wk, study duration 104 wk, Dose: 0, 50, 250, 2500, 5000 ppm of 92.9% imiprothrin in diet for 104 wk, study duration 104 wk inactive; negative

COc1ccc(O)cc1
active: Species: RAT, Strain/Sex: F344/FEMALE, Route: ORAL, Dose: 0, 2% IN DIET FOR 104 WK (STUDY DURATION: 104 WK), Tumor Site: Type of Lesion: FORESTOMACH: PAPILLOMA, SQUAMOUS CELL CARCINOMA active; positive | Species: RAT, Strain/Sex: F344/MALE, Route: ORAL, Dose: 0, 2% IN DIET FOR 104 WK (STUDY DURATION: 104 WK), Tumor Site: Type of Lesion: FORESTOMACH: PAPILLOMA, SQUAMOUS CELL CARCINOMA active; positive
inactive: Species: RAT, Strain/Sex: F344/MALE, Route: ORAL, Dose: 0, 0.4% IN DIET FOR DURATION OF STUDY (STUDY DURATION: 104 WK) inactive; negative

C=CC1CC=CCC1 (configuration not stated)
active: Species: MOUSE, Strain/Sex: B6C3F1/FEMALE, Route: GAVAGE, Dose: 0, 200, 400 MG/KG IN CORN OIL 5 D/WK FOR 103 WK, Dose: 0, 200, 400 MG/KG IN CORN OIL 5 D/WK FOR 103 WK, Tumor Site: Type of Lesion: OVARIES: BENIGN MIXED TUMOR, GRANULOSA CELL TUMOR, GRANULOSA CELL TUMOR OR CARCINOMA active; positive

CCOc1ccc(NC(C)=O)cc1
active: Species: MOUSE, Strain/Sex: B6C3F1/MALE, Route: ORAL, Dose: 0.6, 1.25% IN DIET, Tumor Site: Type of Lesion: KIDNEY: RENAL CELL ADENOMA, RENAL CELL CARCINOMA active; positive | Species: RAT, Strain/Sex: SD/CSHI/MALE, Route: ORAL, Dose: 0, 2% IN DIET FOR 85 WK (STUDY DURATION: 85 WK), Tumor Site: Type of Lesion: RENAL PELVIS: CARCINOMA, PAPILLOMA, URINARY BLADDER: PAPILLOMA active; positive | Species: RAT, Strain/Sex: SPRAGUE-DAWLEY/FEMALE, Route: ORAL, Dose: 1.25, 2.5% IN DIET FOR 18 MO, Tumor Site: Type of Lesion: NASAL CAVITY active; positive | Species: RAT, Strain/Sex: SPRAGUE-DAWLEY/MALE, Route: ORAL, Dose: 0, 0.535% IN DIET FOR 117 WK, Tumor Site: Type of Lesion: KIDNEY, NASAL CAVITY: SQUAMOUS CELL CARCINOMA active; positive | Species: RAT, Strain/Sex: SPRAGUE-DAWLEY/MALE, Route: ORAL, Dose: 1.25, 2.5% IN DIET FOR 18 MO, Tumor Site: Type of Lesion: NASAL CAVITY, URINARY TRACT active; positive

CCOc1ccc(NC(C)=O)cc1N
active: Species: MOUSE, Strain/Sex: B6C3F1/MALE, Route: ORAL, Dose: 0, 0.4, 0.8% OF DIET, Dose: 0, 0.4, 0.8% OF DIET, Tumor Site: Type of Lesion: THYROID GLAND: FOLLICULAR CELL ADENOMA, CARCINOMA, ADENOCARCINOMA, ADENOMA, LUNG: ALVEOLAR/BRONCHIOLAR ADENOMA, CARCINOM active; positive
inactive: Species: MOUSE, Strain/Sex: B6C3F1/FEMALE, Route: ORAL, Dose: 0, 0.4, 0.8% OF DIET, Dose: 0, 0.4, 0.8% OF DIET inactive; negative | Species: RAT, Strain/Sex: F344/FEMALE, Route: ORAL, Dose: 0, 0.4, 1.5% OF DIET, Dose: 0, 0.4, 1.5% OF DIET inactive; negative | Species: RAT, Strain/Sex: F344/MALE, Route: ORAL, Dose: 0, 0.4, 1.5% OF DIET, Dose: 0, 0.4, 1.5% OF DIET inactive; negative

O=c1ccc2ccc3occc3c2o1
inactive: Species: MOUSE, Strain/Sex: C3H/HEN/FEMALE, Route: DERMAL, Dose: 215 UG IN 70% ETHANOL 3/WK FOR 48 WK (STUDY DURATION: 68 WK) inactive; negative
